According to publication PMC11968819 (Scientific Reports, 2025):

Tests used:
[1] = system: human duodenal organoid-derived monolayer model
[2] = human, four-donor-derived monolayer models (Supplementary Fig. 8a)
[3] = system: UDP-glucuronosyltransferase (UGT); experiment: Raloxifene permeability and metabolizing assay; format: in vitro ADME, human; details: 5 μM raloxifene
[4] = molecular target: T1, Carboxylesterase 2 (CES2) (Homo sapiens, UniProt O00748); experiment: Irinotecan metabolizing assay; format: in vitro ADME; details: 10 μM irinotecan, 20 μM loperamide, 3 h
T1 sequence (O00748 27-559): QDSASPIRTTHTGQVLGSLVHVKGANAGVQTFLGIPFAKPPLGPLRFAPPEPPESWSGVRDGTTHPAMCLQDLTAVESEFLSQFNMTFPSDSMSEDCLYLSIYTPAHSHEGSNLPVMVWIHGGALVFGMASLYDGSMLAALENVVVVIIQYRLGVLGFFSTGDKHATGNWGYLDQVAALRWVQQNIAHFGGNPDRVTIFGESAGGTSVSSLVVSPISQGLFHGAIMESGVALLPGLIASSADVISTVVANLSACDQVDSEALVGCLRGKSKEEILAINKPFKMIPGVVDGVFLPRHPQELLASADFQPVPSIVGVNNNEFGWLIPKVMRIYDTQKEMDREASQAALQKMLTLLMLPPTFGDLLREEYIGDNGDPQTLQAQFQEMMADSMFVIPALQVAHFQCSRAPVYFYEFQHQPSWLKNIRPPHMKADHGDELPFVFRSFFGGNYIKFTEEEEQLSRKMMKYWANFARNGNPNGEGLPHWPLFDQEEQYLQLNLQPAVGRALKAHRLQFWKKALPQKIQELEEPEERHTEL

[5] = molecular target: P-gp (Homo sapiens, UniProt P08183); experiment: Efflux drug transporter assay with digoxin; details: 10 μM digoxin, 10 μM inhibitor
Chain of P-gp (P08183 whole entry): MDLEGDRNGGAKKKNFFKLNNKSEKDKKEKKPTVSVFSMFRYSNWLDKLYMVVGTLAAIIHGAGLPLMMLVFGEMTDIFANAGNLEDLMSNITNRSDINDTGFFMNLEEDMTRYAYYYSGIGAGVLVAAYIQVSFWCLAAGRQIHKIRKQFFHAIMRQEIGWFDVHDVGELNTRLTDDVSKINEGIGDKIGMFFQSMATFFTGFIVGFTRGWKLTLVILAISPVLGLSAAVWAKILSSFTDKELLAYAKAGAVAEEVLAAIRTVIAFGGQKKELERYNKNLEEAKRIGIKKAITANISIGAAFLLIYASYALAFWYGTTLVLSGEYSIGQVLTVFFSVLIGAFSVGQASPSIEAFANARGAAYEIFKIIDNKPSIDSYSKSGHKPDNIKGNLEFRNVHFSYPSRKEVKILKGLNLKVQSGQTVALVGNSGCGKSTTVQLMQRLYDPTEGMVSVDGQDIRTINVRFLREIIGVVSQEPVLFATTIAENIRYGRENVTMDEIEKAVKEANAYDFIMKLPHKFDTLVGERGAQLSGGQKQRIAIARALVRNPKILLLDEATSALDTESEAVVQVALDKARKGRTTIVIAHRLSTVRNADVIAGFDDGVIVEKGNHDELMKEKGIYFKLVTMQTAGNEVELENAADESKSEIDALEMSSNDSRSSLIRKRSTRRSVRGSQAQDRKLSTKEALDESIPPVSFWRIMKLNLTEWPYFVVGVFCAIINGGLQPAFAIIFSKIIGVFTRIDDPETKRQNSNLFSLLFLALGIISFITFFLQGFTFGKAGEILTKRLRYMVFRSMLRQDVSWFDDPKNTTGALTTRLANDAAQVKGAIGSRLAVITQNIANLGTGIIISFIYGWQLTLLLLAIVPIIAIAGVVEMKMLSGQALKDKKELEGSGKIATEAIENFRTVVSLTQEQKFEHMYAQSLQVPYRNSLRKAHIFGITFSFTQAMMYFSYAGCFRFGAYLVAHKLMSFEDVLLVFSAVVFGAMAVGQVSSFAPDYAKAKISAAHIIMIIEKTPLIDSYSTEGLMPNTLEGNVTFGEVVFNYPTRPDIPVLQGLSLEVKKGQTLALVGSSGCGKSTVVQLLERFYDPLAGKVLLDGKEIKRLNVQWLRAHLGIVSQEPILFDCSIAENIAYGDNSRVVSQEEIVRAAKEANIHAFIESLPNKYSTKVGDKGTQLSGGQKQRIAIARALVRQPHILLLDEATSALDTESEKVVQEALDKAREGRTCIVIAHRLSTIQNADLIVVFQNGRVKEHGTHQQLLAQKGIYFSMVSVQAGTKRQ

[6] = system: human duodenal organoid-derived monolayer model; experiment: FaSSIF tolerability assay with lucifer yellow; format: in vitro ADME; details: FaSSIF pH 6.5 apical, 2 h; within individual experiments and inter-experiments

| Compound | Papp at 10 μM [2] | also measured |
| --- | --- | --- |
| Nn1nnc2ccccc21 [ABT, 1-aminobenzotriazole] | – | Effect on amount of midazolam metabolites [1]: significantly decreased; Effect on midazolam permeability [1]: significantly enhanced |
| Cc1cc(=O)n(-c2ccccc2)n1C [Antipyrine] | > 1 ×10⁻⁶ cm/s | – |
| NC(=O)N1c2ccccc2C=Cc2ccccc21 [Carbamazepine] | > 1 ×10⁻⁶ cm/s | – |
| CCC1=C(C)CN(C(=O)NCCc2ccc(S(=O)(=O)NC(=O)N[C@H]3CC[C@H](C)CC3)cc2)C1=O [Glimepiride] | > 1 ×10⁻⁶ cm/s | – |
| CC(C(=O)O)c1cccc(C(=O)c2ccccc2)c1 (stereo not drawn) [Ketoprofen] | > 1 ×10⁻⁶ cm/s | – |
| COCCc1ccc(OCC(O)CNC(C)C)cc1 (stereo not drawn) [Metoprolol] | > 1 ×10⁻⁶ cm/s | – |
| Cc1onc(-c2ccccc2)c1C(=O)N[C@@H]1C(=O)N2[C@@H]1SC(C)(C)[C@@H]2C(=O)O [Oxacillin] | < 1 ×10⁻⁶ cm/s | – |
| O=C(O)C[C@H](O)C[C@H](O)/C=C/c1c(C2CC2)nc2ccccc2c1-c1ccc(F)cc1 [Pitavastatin] | > 1 ×10⁻⁶ cm/s | – |
| CC(C)NCC(O)COc1cccc2ccccc12 (stereo not drawn) [Propranolol] | > 1 ×10⁻⁶ cm/s | – |
| O=C(c1ccc(OCCN2CCCCC2)cc1)c1c(-c2ccc(O)cc2)sc2cc(O)ccc12 [Raloxifene] | – | Metabolism by UGT [3]: mostly found to be metabolized to glucuronide |
| CN(CCOc1ccc(CC2SC(=O)NC2=O)cc1)c1ccccn1 (stereo not drawn) [Rosiglitazone] | > 1 ×10⁻⁶ cm/s | – |
| CN(C)C(=O)C(CCN1CCC(O)(c2ccc(Cl)cc2)CC1)(c1ccccc1)c1ccccc1 [loperamide] | – | Effect on generation of SN-38 from irinotecan [4]: significantly inhibited |
| O[C@@H](COc1cccc2ncccc12)CN1CCN([C@@H]2c3ccccc3[C@@H]3[C@H](c4ccccc42)C3(F)F)CC1 [zosquidar, zosuquidar] | – | Effect on transport of P-gp substrate digoxin [5]: canceled |
| lucifer yellow | – | Papp of lucifer yellow [6]: below 1.0 × 10^–6 cm/s |
